Like-named read-outs stand apart in the source and are kept apart here.
How the values were obtained:
T cells = experiment: CD69 expression after PMA activation (flow cytometry); assay type: cell-based; settings: all energies tested (22, 33 and 44 J/mLRBC)
[1] = test system: infectious bovine rhinotracheitis virus (IBR); experiment: Virus inactivation in whole blood; assay type: cell-based; settings: as a function of illumination energy
S. epidermidis = experiment: Low bacteria titer study in whole blood; assay type: cell-based; design: key to Bacteria detected (+) or not detected (−) after treatment: +: some of the replicates of the cultures in the panel grew in under 5 days; −: none of the replicates of the cultures in the panel grew in under 5 days; settings: for Bacteria detected (+) or not detected (−) after treatment: 110 J/mLRBC (n = 3)
Text: (§1) To test whether pathogen inactivation of whole blood was effective in inactivating clinically relevant levels of bacteria which may be present in the whole blood, low titer bacteria studies were done. After pathogen inactivation of whole blood, the whole blood was separated into a red blood cell (RBC) component and platelet rich plasma (PRP) component. A + symbol means that some of the replicates of the cultures in the panel grew in under 5 days. A − symbol means that none of the replicates of the cultures in the panel grew in under 5 days.

A. baumannii = experiment: Low bacteria titer study in whole blood; assay type: cell-based; design: key: +: some of the replicates of the cultures in the panel grew in under 5 days; −: none of the replicates of the cultures in the panel grew in under 5 days; settings: 110 J/mLRBC (n = 3)
Text: as §1

S. liquefaciens = experiment: Low bacteria titer study in whole blood; assay type: cell-based; design: key: +: some of the replicates of the cultures in the panel grew in under 5 days; −: none of the replicates of the cultures in the panel grew in under 5 days
Text: as §1

S. pyogenes = experiment: Low bacteria titer study in whole blood; assay type: cell-based; design: key: +: some of the replicates of the cultures in the panel grew in under 5 days; −: none of the replicates of the cultures in the panel grew in under 5 days
Text: as §1

Y. enterocolitica = experiment: Low bacteria titer study in whole blood; assay type: cell-based; design: key: +: some of the replicates of the cultures in the panel grew in under 5 days; −: none of the replicates of the cultures in the panel grew in under 5 days
Text: as §1

red blood cells [2] = experiment: ATP level in stored red blood cells; assay type: cell-based; settings: increased energy levels
Experimental: ATP level or concentration was measured in red blood cells separated from pathogen inactivated whole blood. ATP concentration is a measure of the amount of ATP present in the cells at a given time.

red blood cells [3] = experiment: Mean osmotic fragility of stored red blood cells; assay type: cell-based; settings: stored for 42 days; vs untreated cells
Experimental: Osmotic fragility during storage of red blood cells separated from pathogen inactivated whole blood was measured. The normal red blood cell is a relatively impermeable biconcave disc which maintains osmotic equilibrium with the surrounding medium. As the surrounding medium becomes hypotonic, fluid will be taken into the cell to maintain stability. Eventually under very hypotonic conditions the cell will fill to capacity and rupture. Red blood cells with damaged membranes have a decreased capacity to expand, and will rupture in mildly hypotonic conditions that fail to lyse normal red cells. […] Mean osmotic fragility (MOF) is a measure of red blood cell membrane fragility. The higher the MOF, the more fragile the red blood cells are. MOF is the concentration of NaCl where 50% of the red blood cells hemolyze.

white blood cells (WBCs) [4] = settings: for % inhibition of proliferation: Allorecognition: treated responders
white blood cells (WBCs) [5] = experiment: Cytokine production in response to LPS (Cytometric Bead Assay)
[6] = LPS, TH1/TH2 cytokines, 22 J/mlRBC
[7] = LPS, TH1/TH2 cytokines, 33 J/mlRBC
[8] = LPS, TH1/TH2 cytokines, 44 J/mlRBC
[9] = LPS, inflammatory cytokines, 22 J/mlRBC
[10] = LPS, inflammatory cytokines, 33 J/mlRBC

## Cc1cc2nc3c(=O)[nH]c(=O)nc-3n(C[C@H](O)[C@H](O)[C@H](O)CO)c2cc1C [riboflavin, 7,8-dimethyl-10-ribityl isoalloxazine]
T cells
  expression of CD69 on T cells after PMA activation: inhibited expression of CD69
[1]
  log reduction of virus: increases linearly with respect to energy
S. epidermidis; PRP
  Bacteria detected (+) or not detected (−) after treatment: −
S. epidermidis; RBC
  Bacteria detected (+) or not detected (−) after treatment: +
S. epidermidis; 110 J/mLRBC, RBC
  bacterial growth in red blood cells: grew
A. baumannii; PRP
  Bacteria detected (+) or not detected (−) after treatment: −
A. baumannii; RBC
  Bacteria detected (+) or not detected (−) after treatment: −
S. liquefaciens; 80 J/mLRBC (n = 3), PRP
  Bacteria detected (+) or not detected (−) after treatment: −
S. liquefaciens; 80 J/mLRBC (n = 3), RBC
  Bacteria detected (+) or not detected (−) after treatment: −
S. liquefaciens; 110 J/mLRBC (n = 3), PRP
  Bacteria detected (+) or not detected (−) after treatment: −
S. liquefaciens; 110 J/mLRBC (n = 3), RBC
  Bacteria detected (+) or not detected (−) after treatment: −
S. pyogenes; 80 J/mLRBC (n = 3), PRP
  Bacteria detected (+) or not detected (−) after treatment: −
S. pyogenes; 110 J/mLRBC (n = 3), PRP
  Bacteria detected (+) or not detected (−) after treatment: −
S. pyogenes; 110 J/mLRBC (n = 3), RBC
  Bacteria detected (+) or not detected (−) after treatment: −
Y. enterocolitica; 80 J/mLRBC (n = 3), PRP
  Bacteria detected (+) or not detected (−) after treatment: −
Y. enterocolitica; 80 J/mLRBC (n = 3), RBC
  Bacteria detected (+) or not detected (−) after treatment: −
Y. enterocolitica; 110 J/mLRBC (n = 3), PRP
  Bacteria detected (+) or not detected (−) after treatment: −
Y. enterocolitica; 110 J/mLRBC (n = 3), RBC
  Bacteria detected (+) or not detected (−) after treatment: −
Red blood cells [2]
  total concentration of ATP in red blood cells: decrease the total concentration of ATP
Red blood cells [3]
  osmotic fragility (MOF) of red blood cells: slightly more fragile than untreated cells
White blood cells (WBCs) [4]; 22 J/mlRBC
  % inhibition of proliferation: 95 ± 3%
White blood cells (WBCs) [4]; 33 J/mlRBC
  % inhibition of proliferation: 95 ± 2%
White blood cells (WBCs) [4]; 44 J/mlRBC
  % inhibition of proliferation: 96 ± 2%
White blood cells (WBCs) [4]; treated WBCs as responder cells in MLC
  proliferation of treated WBCs in response to allogeneic stimulator cells: not able to proliferate
White blood cells (WBCs) [5]
  inflammatory cytokine production in response to LPS: reduced with treatment, but not to medium control levels
White blood cells (WBCs) [5]; 44 J/mlRBC
  TH1/TH2 cytokine levels induced by LPS: reduced to medium control levels
White blood cells (WBCs) [5]; [6]
  % inhibition of IFN-γ production: 63 ± 71%
  % inhibition of IL-2 production: 63 ± 54%
  % inhibition of IL-4 production: 59 ± 65%
  % inhibition of IL-5 production: 89 ± 2%
  % inhibition of IL-10 production: 66 ± 21%
  % inhibition of TNFα production: 45 ± 53%
White blood cells (WBCs) [5]; [7]
  % inhibition of IFN-γ production: 93 ± 8%
  % inhibition of IL-4 production: 90 ± 4%
  % inhibition of IL-10 production: 94 ± 4%
  % inhibition of TNFα production: 94 ± 5%
White blood cells (WBCs) [5]; [8]
  % inhibition of IFN-γ production: 93 ± 7%
  % inhibition of IL-2 production: 88 ± 4%
  % inhibition of IL-4 production: 90 ± 4%
  % inhibition of IL-5 production: 91 ± 6%
  % inhibition of IL-10 production: 99 ± 1%
  % inhibition of TNFα production: 94 ± 8%
White blood cells (WBCs) [5]; [9]
  % inhibition of IL-1β production: 68 ± 19%
  % inhibition of IL-6 production: 84 ± 8%
  % inhibition of IL-8 production: 85 ± 8%
  % inhibition of IL-10 production: 63 ± 21%
  % inhibition of TNFα production: 54 ± 35%
White blood cells (WBCs) [5]; [10]
  % inhibition of IL-1β production: 91 ± 8%
  % inhibition of IL-6 production: 96 ± 3%
